Test results from article PMC5997322, “Imaging c-Met expression using 18F-labeled binding peptide in human cancer xenografts” (PLoS ONE, 2018).
Residues, ends and D or L forms follow the SMILES beside them. *: point of attachment. Propanoyl(2-F) = CC(F)C(=O)*

What was measured:
UM-SCC-22B cells [1] = assay: Internalization assay (acid wash); type: cell-based, human; conditions: 37°C, early phase, acid wash pH 2.8
Experimental: (§1) For cell uptake measurement, UM-SCC-22B cells were seeded into a 24-well plate at a density of 1×10^5 cells per well and incubated with 18.5 kBq (0.5 μCi)/well of [^18F]FP-Met-pep1 at 37°C for 15, 30 and 60 min. Tumor cells were then washed twice with cold PBS and harvested by adding 250 μl of 0.1 N NaOH. Internalization assay was preformed similarly to the procedure described above. After 15, 30 and 60 min incubation of UM-SCC-22B cells with [^18F]FP-Met-pep1 at 37°C, the cells were washed twice with cold PBS and then incubated for 1 min with acid-washing-buffer (50 mM glycine, 0.1 M NaCl, pH = 2.8) to remove surface bound radioactive ligand. Thereafter, the cells were washed twice with cold PBS and harvested by adding 250 μl of 0.1 N NaOH. The blocking assay was preformed similarly to the procedure described above except that the unlabeled c-Met binding peptide was added into the wells (500 μg/well) and incubated for 15 min at 37°C before adding [^18F]FP-Met-pep1. For efflux experiment, all UM-SCC-22B cells in a 24-well plate were initially incubated with 18.5 kBq (0.5 μCi)/well of [^18F]FP-Met-pep1 at 37°C for 1 hour. […] The cell suspensions were collected and measured in a gamma counter and the cell uptake, internalization and efflux were expressed as the percentage of the added dose (%AD) after decay correction to EOB. […]

UM-SCC-22B cells [2] = assay: Efflux experiment; type: cell-based, human; conditions: UM-SCC-22B cells loaded 1 h at 37°C, then serum-free DMEM
Experimental: as §1

UM-SCC-22B cells [3] = assay: Cell uptake and blocking of [18F]FP-Met-pep1; type: cell-based, human
Experimental: as §1

[4] = test system: UM-SCC-22B tumor-bearing mice; assay: MicroPET imaging, ROI quantification; type: in vivo
Experimental: (§2) The human head and neck squamous carcinoma (HNSCC) cell line UM-SCC-22B (obtained from the University of Michigan) was used in this study. The cells were maintained in DMEM supplemented with 10% fetal bovine serum (FBS), 1% glutamine, 100 unit/ml penicillin, and […] streptomycin (Invitrogen, CA). Subcutaneous UM-SCC-22B tumor model was established in 4 to 6 weeks old male athymic nu/nu mice (Harlan Laboratories). Typically, 5 × 10^6 cells suspended in 50 μl of PBS were injected in the right or left front shoulder. Tumor growth was followed by caliper measurements of perpendicular diameters of the tumor. The tumor volume was estimated by the formula: tumor volume = a×b^2 /2, where a and b were the tumor length and width, respectively, in millimeters. Small animal PET studies were performed when the tumor volume reached 100 to 200 mm^3.
(§3) To perform a microCT scan by a high-resolution Inveon MicroCT scanner (Siemens Medical Solutions) before microPET scan, an anesthetized nude mouse bearing UM-SCC-22B tumor was mounted on a turntable bed that could be moved automatically in the axial direction. Whole body CT acquisition parameters were as follows: voltage 70 kVp, current 400 μA, angular sampling 1° per projection for a full 360° scan, and effective pixel size 58 μm. Scan time was approximately 12 min. The image was reconstructed in real-time by a modified Feldkamp cone bean algorithm with a Shepp-Logan filter and appropriate center offset determined prior to scanning. PET scans were performed using an Inveon microPET scanner (Siemens Medical Solutions). Tumor-bearing mice were anesthetized using isoflurane/O2 (1.5–2% v/v) and intravenously injected with 3.7 MBq (100 μCi) of [^18F]FP-Met-pep1 in a volume of 100 μl saline. For blocking experiments, [^18F]FP-Met-pep1 was co-injected with 500 μg of unlabeled Met-pep1 peptide. Each group contained four mice. The images were reconstructed by a three-dimensional ordered subsets expectation maximization (3D-OSEM) algorithm with maximum a posteriori (MAP) algorithm and the frame rates were 10 × 30s, 5 × 60s, 5 × 120s and 10 × 240s, and no correction was applied for attenuation or scatter. Static images at 1 h time point were also acquired as 10-min static images for region of interest (ROI) quantification. Image analysis was done using ASI Pro VMTM software. PET/CT images were co-registered and fused automatically with ASI software. For each microPET scan, three-dimensional ROIs were drawn over the tumor, liver, kidney, and muscle on decay-corrected whole-body coronal images. The average radioactivity concentration within a tumor or an organ was obtained from mean pixel values within the ROI volume, which were converted to counts per milliliter by using a pre-determined conversion factor.

[5] = MicroPET imaging, ROI quantification; type: in vivo, mice; conditions: male, athymic nu/nu, mouse, iv, total radioactivity, 3.7 MBq i.v., mean ± SD, n = 4
Experimental: as §2, §3

[6] = Ex vivo biodistribution (gamma-counting); type: in vivo, mice; conditions: male, athymic nu/nu, mouse, iv, total radioactivity, 30 min after injection, mean ± SD, n = 4
Experimental: as §2
After microPET imaging, the blood of mice bearing UM-SCC-22B tumor xenografts was drawn from the orbital sinus, then mice were sacrificed by cervical dislocation and selected organs were excised. Blood, tumor, and major organs tissues were collected and weighed (wet weight). The radioactivity in each tissue was measured using a gamma-counter (Packard Instrument). Distribution of activity was calculated as percentage of injected dose per gram of organ (%ID/g). For each mouse, the radioactivity of the tissue samples was calibrated against a known aliquot of the injected dose and normalized to a body mass of 30 g. Values were expressed as mean ± SD for a group of four animals.

CC(C)C[C@H](NC(=O)[C@@H](N)Cc1ccc(O)cc1)C(=O)N[C@@H](Cc1ccccc1)C(=O)N[C@@H](CO)C(=O)N[C@H](C(=O)N[C@@H](Cc1c[nH]cn1)C(=O)N[C@@H](Cc1c[nH]c2ccccc12)C(=O)N1CCC[C@H]1C(=O)N1CCC[C@H]1C(=O)N[C@@H](CC(C)C)C(=O)N[C@@H](CCCCNC(=O)C(C)F)C(=O)N[C@@H](C)C(=O)O)C(C)C (some centres unmarked) [[^18F]FP-Met-pep1] (H-YLFSVHWPPLK(Propanoyl(2-F))A-OH)
fraction of observed uptake due to internalization (UM-SCC-22B cells [1]): Approximately 2/3 | tracer effluxed out of the cells (UM-SCC-22B cells [2]; 15 min): approximately 47% | radiotracer remained bound with the cells (UM-SCC-22B cells [2]; end of incubation (60 min)): about 36% | cell uptake in presence of unlabeled Met-pep1 (blocking) (UM-SCC-22B cells [3]; 500 μg/well unlabeled Met-pep1 pre-incubated 15 min at 37°C): dramatic inhibition of cell uptake | cell uptake (percentage of added dose) (UM-SCC-22B cells [3]; 18.5 kBq (0.5 μCi)/well, 37°C, 30 min incubation (peak), gamma counter, mean ± SD, triplicate wells): 34.52 ± 1.34% | muscle uptake (microPET) ([4]; all timepoints (30, 60, 120 min)): very low uptake | radioactivity excreted, primarily through the renal pathway ([4]; within 2 h after injection, dynamic microPET (S1 Fig)): about 65% | tissue uptake at 0.5 h ([5]; liver, 30 min post-injection, read-out: liver uptake (microPET)): 11.5 ± 0.78 %ID/g | tissue uptake at 0.5 h ([5]; tumor (UM-SCC-22B xenograft), UM-SCC-22B tumor, 30 min post injection, read-out: tumor uptake (microPET)): 4.72 ± 0.67 %ID/g | tissue uptake at 1 h ([5]; tumor (UM-SCC-22B xenograft), UM-SCC-22B tumor, 60 min post injection): 3.83 ± 0.55 %ID/g | tissue uptake at 2 h ([5]; tumor (UM-SCC-22B xenograft), UM-SCC-22B tumor, 120 min post injection): 3.11 ± 0.25 %ID/g | tissue uptake at 0.5 h ([6]; blood, 3.7 MBq, without blocking, read-out: blood tracer concentration): 1.55 ± 0.48 %ID/g | tissue uptake at 0.5 h ([6]; blood, with 500 μg unlabeled peptide, read-out: blood tracer concentration, after blocking): 2.85 ± 0.76 %ID/g | tissue uptake at 0.5 h ([6]; kidney, 3.7 MBq, blocking state not clearly stated, read-out: kidney tracer accumulation (ex vivo)): 10.5 ± 0.53 %ID/g | tissue uptake at 0.5 h ([6]; liver, 3.7 MBq, blocking state not clearly stated, read-out: liver tracer accumulation (ex vivo)): 5.58 ± 0.45 %ID/g | tissue uptake at 0.5 h ([6]; tumor (UM-SCC-22B xenograft), 3.7 MBq, absence of unlabeled peptide, read-out: tumor uptake (tissue sampling, gamma-counting)): 4.58 ± 0.59 %ID/g | tissue uptake at 0.5 h ([6]; tumor (UM-SCC-22B xenograft), presence of 500 μg unlabeled peptide, read-out: tumor uptake (tissue sampling, gamma-counting), blocked): 0.88 ± 0.35 %ID/g
